Assay results from patent publication US12637410B2, “Vesicular monoamine transporter-2 ligands and their use in the treatment of psychostimulant abuse” (priority 2016, dated 2026).
Read-outs that look alike come from different tables or passages of the source.

Experiments:
[1] = Pharmacokinetic assays in mice (iv, po, sc); type: in vivo
[2] = Microsomal assays, rat liver microsomes; details: for Microsomal stability assays: Species/Half-life (hr) Rat: rat liver microsomes
Experimental: (§1) Each plate holds triplicate samples of two controls (0.4 mM) and up to 14 compounds (0.08 mM) in rat and human liver microsomes. Aliquots of each well of the plate (175 μl of each well) were transferred from the master plate into 5 assay plates. […] NADPH regenerating system solution A (6.05 ml, Fisher Scientific, #NC9255727) was combined with NADPH regenerating system solution B (1.21 ml, Fisher Scientific, #NC9016235) in potassium phosphate buffer (15.8 ml, 0.1 M, pH 7.4, 37° C.). The resulting NADPH solution (43.8 μl) was added to each well of all the 96-well assay plates and mixed with pipette briefly making the final protein and compound concentrations respectively: 0.5 mg/ml, 0.08 μM (0.4 μM for controls). Plates were sealed, and all plates except the 0-hr plate were incubated at 37° C., shaken at a speed of 60 rpm. A single assay plate was tested at each time point: 0.5 hr, 1 hr, 2 hr, and 4 hr. At each time point, 437.5 μL of pre-cooled internal standard was added each well of the plate to quench the reaction. […] 120 μl supernatant was transferred to a 96-well plate, centrifuged again and analyzed by UPLC-MS (Waters Inc., Milford, MA). The compounds and internal standard were detected by selected ion recording (SIR).
(§2) The amount of material was measured as a ratio of peak area to the internal standard and graphed. Using the slope from the initial linear portion of this curve, the degradation rate constant is calculated using equation [1]. The rate constant was then used to calculate the compounds half-life in plasma using equation [2].

[3] = Microsomal assays, human liver microsomes
Experimental: as §1, §2

[4] = Pharmacokinetic assays in rats (iv, po, sc); details: for bioavailability: male, Sprague-Dawley, in vivo; for bioavailability / Bioavail. (F %) Frat: rat
Experimental: Animals: Oral and intravenous dose pharmacokinetic studies were conducted in tandem in age matched female Swiss Webster mice and/or age matched male Sprague-Dawley rats purchased from Envigo-Harlan. Animals were housed in IVC cages with wood chip bedding and given food and water ad libitum.
Dose Formulation and Administration Volumes: Hydrochloric acid salts or free base forms were used for formulation.
Pharmacokinetic Studies: Groups of 6 animals were dosed with formulated test compound by bolus lateral tail vein injection (iv), by oral gavage (po), or by subcutaneous injection (sc) into left hind flank. […] Whole blood samples were collected into microtubes and centrifuged at 4000×g for 2 min. Plasma supernatants were collected and immediately frozen on dry ice, then transferred to a −80° C. freezer to await processing for LC-MS/MS analysis. Typical dose rates were 2 mg/kg iv, 10 mg/kg po, and <30 mg/kg sc.
Plasma calibrators (usually 0.25, 0.5, 1, 5, 15, 30, 100, 400, 700, and 1000 ng/mL) were generated by the addition of 5 μL of appropriate spiking solution into 100 μL blank plasma followed by vortex mixing. Plasma QC samples (usually 0.75, 25, 500, and 850 ng/mL) were prepared in a similar manner using an independent 2nd analyte stock solution. Calibrators and QCs were stored alongside experimental samples at −80° C. until analysis.
Analyte and internal standard contained in 5 μL sample injections (15° C. temp.; 1.5 mL 0.1% formic acid in MeOH or 1:1 MeOH: isopropanol injector rinse; 10 sec rinse dip time) were eluted from a guard-protected (2.7 μL, 3×5 mm) Agilent Poroshell 120 EC-C18 (2.7 μL, 3×50 mm; oven temp. 40° C.) analytical column with a 0.1% formic acid in water (mobile Phase-A): 0.1% formic acid in acetonitrile (mobile Phase-B) gradient. […] Positive-mode ESI Turbo V® source and MS gas, temperature, and probe settings were optimized for 0.4 mL flow rate at CUR=35/ISV=4500/TEM=550/GS1=65/GS2=65/CAD=10 with the probe position=7/0.5 horizontal/vertical. […] ISTD voltage potentials were set at DP=70, EP=10, CE=35 and CXP=6. Sample sequences consisted of single randomized experimental sample injections flanked by sets of blanks, calibrators and QCs with QCs interspersed, as needed, to maintain >5% total QC to experimental sample occurrence. High QCs (5,000 and 10,000 ng/mL) were inserted at end of sequence prior to second calibrator injections. Calibration curves were typically constructed by weighted (1/x^2) non-linear regression analysis of analyte/ISTD concentration ratios to analyte/ISTD peak area ratios using AB SciexMultiQuant software (Ver 3.0.31721.0).

[5] = molecular target: dopamine transporter (DAT) (Rattus norvegicus, UniProt P23977); experiment: [3H]DA uptake assay, synaptosomal preparation
Experimental: [^3H]DA and [3H]5-HT uptake into striatal synaptosomes was determined to evaluate compound inhibition of the dopamine transporter (DAT) and the serotonin transporter (SERT), respectively. […] Assays were performed in duplicate in a total volume of 500 μL (for DAT assays) or 250 μL (for SERT assays). Aliquots of the synaptosomal suspension (25 μL for DAT, 50 μL for SERT) were added to tubes containing assay buffer and various concentrations of analog (1 nM-100 μM), and incubated at 34° C. for 5 min. Nonspecific uptake was determined in the presence of nomifensine (10 μM) for DAT assays or fluoxetine (10 μM) for SERT assays. […] Samples were placed on ice, and 50 μL of 0.1 μM [^3H]DA (for DAT assays) or 25 μL of 0.1 μM [^3H]5-HT (for SERT assays) was added to each tube, and incubated for 10 min at 34° C. Reactions were terminated by addition of 3 mL of ice-cold assay buffer and subsequent filtration and radioactivity retained by the filters was determined by liquid scintillation spectrometry (Tri-Carb 2100TR liquid scintillation analyzer; PerkinElmer Life and Analytical Sciences, Boston, MA).

VMAT2 = molecular target: T1, VMAT2 (Rattus norvegicus, UniProt Q01827); experiment: [3H]Dopamine ([3H]DA) uptake assay, vesicular preparation; type: biochemical
T1 construct: from tissue; host or cells: rat striatum, isolated synaptic vesicles

hERG channel = molecular target: T2, hERG channel (Homo sapiens, UniProt Q12809); experiment: [3H]Dofetilide binding assay, HEK-293 cell membrane preparation; details: hERG Binding: Mean Ki (nM)
T2 construct: purchased; host or cells: HEK-293 cells stably expressing hERG (membranes)
Experimental: Membranes were suspended in assay buffer (50 mM Tris, 10 mM KCl, 1 mM MgCl2, pH 7.4) prior to the experiment. […] Nonspecific binding was determined in the presence of amitriptyline (1 mM). Samples were incubated for 1 hr. at 24° C., followed by rapid filtration.

[6] = female, Sprague-Dawley, rat, pH 7.4
[7] = [3H]DA uptake, rat vesicular preparation, mean of n>=3 unless N given, read-out: VMAT2 (rat) Inhibition: Mean Ki
[8] = [3H]dofetilide binding, HEK-293 membranes, mean of n>=3 unless N given
[9] = Table 4, mean, minimally n = 3, read-out: VMAT2 (rat) Inhibition: Mean Ki

dopamine transporter (DAT), sequence (P23977 whole entry): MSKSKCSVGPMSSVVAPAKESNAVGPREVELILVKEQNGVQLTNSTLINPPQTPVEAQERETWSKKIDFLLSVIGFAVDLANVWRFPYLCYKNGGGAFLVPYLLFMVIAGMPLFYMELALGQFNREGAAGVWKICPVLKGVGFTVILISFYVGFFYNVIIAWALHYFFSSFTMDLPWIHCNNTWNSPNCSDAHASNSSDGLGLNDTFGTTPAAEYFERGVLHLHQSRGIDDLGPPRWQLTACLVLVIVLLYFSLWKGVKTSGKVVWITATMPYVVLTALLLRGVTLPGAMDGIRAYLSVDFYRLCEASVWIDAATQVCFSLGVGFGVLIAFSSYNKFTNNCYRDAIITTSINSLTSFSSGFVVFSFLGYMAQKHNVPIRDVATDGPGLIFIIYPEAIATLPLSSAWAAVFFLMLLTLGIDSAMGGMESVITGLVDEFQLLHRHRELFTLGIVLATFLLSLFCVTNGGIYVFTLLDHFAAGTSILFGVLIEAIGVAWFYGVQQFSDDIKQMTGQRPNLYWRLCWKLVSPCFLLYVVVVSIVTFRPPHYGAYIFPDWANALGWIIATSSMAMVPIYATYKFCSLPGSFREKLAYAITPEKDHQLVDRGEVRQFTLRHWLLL
T1 sequence (Q01827 whole entry): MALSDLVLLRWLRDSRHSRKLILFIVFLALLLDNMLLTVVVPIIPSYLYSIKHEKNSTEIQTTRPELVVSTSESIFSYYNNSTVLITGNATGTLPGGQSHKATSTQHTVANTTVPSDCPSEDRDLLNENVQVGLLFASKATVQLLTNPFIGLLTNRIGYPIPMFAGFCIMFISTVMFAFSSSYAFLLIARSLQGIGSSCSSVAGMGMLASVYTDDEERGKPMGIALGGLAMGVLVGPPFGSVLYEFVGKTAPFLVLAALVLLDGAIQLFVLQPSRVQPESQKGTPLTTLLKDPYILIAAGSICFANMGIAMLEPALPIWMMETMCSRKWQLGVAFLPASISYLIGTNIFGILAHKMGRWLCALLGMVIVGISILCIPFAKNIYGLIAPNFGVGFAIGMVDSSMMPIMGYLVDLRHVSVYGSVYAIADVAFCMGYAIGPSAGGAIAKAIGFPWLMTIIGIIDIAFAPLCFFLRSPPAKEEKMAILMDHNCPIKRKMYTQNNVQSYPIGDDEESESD
T2 sequence (Q12809 whole entry): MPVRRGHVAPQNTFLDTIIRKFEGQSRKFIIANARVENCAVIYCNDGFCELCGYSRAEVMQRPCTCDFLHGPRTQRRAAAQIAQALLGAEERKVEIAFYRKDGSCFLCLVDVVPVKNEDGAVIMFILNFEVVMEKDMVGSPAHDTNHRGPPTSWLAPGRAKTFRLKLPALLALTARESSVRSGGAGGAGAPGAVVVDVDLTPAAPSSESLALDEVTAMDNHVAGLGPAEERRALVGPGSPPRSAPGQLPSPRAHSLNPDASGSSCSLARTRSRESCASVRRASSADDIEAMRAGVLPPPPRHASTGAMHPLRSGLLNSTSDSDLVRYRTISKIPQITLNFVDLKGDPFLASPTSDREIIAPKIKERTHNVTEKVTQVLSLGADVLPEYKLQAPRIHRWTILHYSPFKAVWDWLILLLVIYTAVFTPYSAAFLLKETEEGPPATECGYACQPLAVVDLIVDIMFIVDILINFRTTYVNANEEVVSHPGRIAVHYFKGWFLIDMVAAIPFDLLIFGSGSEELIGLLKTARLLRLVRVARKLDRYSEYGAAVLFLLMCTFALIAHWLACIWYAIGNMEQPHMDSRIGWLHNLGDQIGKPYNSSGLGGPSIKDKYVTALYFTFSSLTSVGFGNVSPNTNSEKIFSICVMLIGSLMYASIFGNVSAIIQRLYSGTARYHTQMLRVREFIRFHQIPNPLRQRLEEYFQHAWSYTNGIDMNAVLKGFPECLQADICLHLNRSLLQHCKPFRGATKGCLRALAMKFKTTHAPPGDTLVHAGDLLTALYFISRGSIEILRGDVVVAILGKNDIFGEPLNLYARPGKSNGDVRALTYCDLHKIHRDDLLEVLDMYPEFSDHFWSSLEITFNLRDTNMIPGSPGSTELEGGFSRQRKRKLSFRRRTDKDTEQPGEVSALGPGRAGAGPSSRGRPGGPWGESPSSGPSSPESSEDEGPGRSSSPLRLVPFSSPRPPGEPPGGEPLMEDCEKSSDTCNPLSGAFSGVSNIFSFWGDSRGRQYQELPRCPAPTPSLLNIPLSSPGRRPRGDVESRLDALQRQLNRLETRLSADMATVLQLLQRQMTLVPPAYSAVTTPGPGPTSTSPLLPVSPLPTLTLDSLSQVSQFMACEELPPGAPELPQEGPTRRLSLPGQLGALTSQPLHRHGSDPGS

Structure (SMILES)	Bioavail. (F %) Fmice [1]	CLint scaled at 0.08 µM [2, 6] [mL/min/kg]	Ki [5] [µM]	Ki (hERG channel; Table 4, mean, minimally n = 3) [nM]	Ki (VMAT2) [nM]	further results
CC(Cc1ccccc1)NCCCc1ccc(S)cc1 (centres unmarked) [Compound 260]	Fmice: 0.9%					
CCC(Cc1ccccc1)NCCCc1ccc(O)cc1 (centres unmarked) [Compound 207]						Microsomal stability assays: Species/Half-life (hr) Rat [2]: Rat: 0.1 hr Human: 0.1 hr; Microsomal stability assays: Species/Half-life (hr) Human ([3]; human liver microsomes): Rat: 0.1 hr Human: 0.1 hr
CC(Cc1ccc(F)c(F)c1)NCCCc1cccc(C(N)=O)c1 (centres unmarked) [Compound 237]		30	3.12	4780		bioavailability ([4]; po, 10 mg/kg): 2%; Ki (VMAT2; [7]): 32 nM; Ki (hERG channel; [8]): 4780 nM
COc1ccc(CCCN[C@@H](C)Cc2ccccc2)cc1 [Compound 313]		978		4160	72	half-life at 0.08 µM [2, 6]: < 6 min; Bioavail. (F %) Frat ([4]; route not stated): Frat: 3.4%
CC(Cc1ccccc1)NCCCc1ccc(N)cc1 (centres unmarked) [Compound 220]	Fmice: quant; Frat: quant					Bioavail. (F %) Frat [4]: Fmice: quant; Frat: quant
CC(Cc1ccc(F)c(F)c1)NCCCc1ccc2nn[nH]c2c1 (centres unmarked) [Compound 312]		115	1.9	3000	8	bioavailability ([4]; po, 10 mg/kg): 7%; bioavailability ([4]; sc): 42%
CC(Cc1ccc(-c2cccnc2)cc1)NCCCc1ccc(F)cc1 (centres unmarked) [Compound 192]	Fmice: 6.7%					
CC(Cc1ccc(F)c(F)c1)NCCCc1ccc2nonc2c1 (centres unmarked) [Compound 227]					49	Bioavail. (F %) ([4]; species not given): No detection; Ki (hERG channel; [8]): 650 nM
CC(Cc1ccc(F)cc1)NCCCc1ccc(F)cc1 (centres unmarked) [Compound 190]	Fmice: 5%				9	
CC(Cc1ccccc1)NCCCc1ccc(OC(F)(F)F)cc1 (centres unmarked) [Compound 258]					16	half-life at 0.08 µM ([3]; both, human, pH 7.4): > 240 min; Ki (hERG channel; [8]): 90 nM
CC(Cc1ccccc1)NCCCc1ccc(C(F)(F)F)cc1 (centres unmarked) [Compound 194]	Fmice: 11.9%					
CC(Cc1ccc(F)c(F)c1)NCCCc1ccc(C(N)=O)cc1 (centres unmarked) [Compound 231]		23	2.75	3500		bioavailability ([4]; po, 10 mg/kg): 62%; bioavailability ([4]; sc): 84%; Bioavail. (F %) Frat [4]: Frat: 80%; Ki (VMAT2; [7]): 29 nM; Ki (hERG channel; [8]): 3500 nM
CC(Cc1ccccc1)NCCCc1ccc(S)cc1 (centres unmarked) [Compound 216]	Fmice: 0.9%					Microsomal stability assays: Species/Half-life (hr) Rat ([2]; cell prints %): Rat: 0.3%
CC(Cc1cccc(F)c1)NCCCc1ccc(C(N)=O)cc1 (centres unmarked) [Compound 309]		57	1.63	12000		bioavailability ([4]; po, 10 mg/kg): 5%; bioavailability ([4]; sc): 76%; Ki (VMAT2; [9]): 6 nM
CC(Cc1ccc(-c2cncnc2)cc1)NCCCc1ccc(F)cc1 (centres unmarked) [Compound 196]	Fmice: 3.4% (prelim rat done)				8	
CC(Cc1ccc(F)c(F)c1)NCCCc1ccc2nc[nH]c2c1 (centres unmarked) [Compound 228]		48	3.04	6770	41	bioavailability ([4]; po, 10 mg/kg): 6%; Bioavail. (F %) Frat [4]: Frat: 5%; Ki (hERG channel; [8]): 6770 nM
CC(Cc1cccc(N)c1)NCCCc1ccc(F)cc1 (centres unmarked) [Compound 310]		74	2.23	2730	5	
CC(Cc1ccccc1)NCCCc1ccc(O)cc1 (centres unmarked) [Compound 223]	Fmice: 8.9%					
CC(Cc1ccc(F)cc1)NCCCc1ccncc1 (centres unmarked) [Compound 176]	Fmice: ~22% (prelim rat done)					Ki (hERG channel; [8]): 5100 nM
CC(Cc1ccc(F)c(F)c1)NCCCc1ccc(C(N)=O)c(F)c1 (centres unmarked) [Compound 299]		19	4.21	12100	29	
CC(Cc1ccccc1)NCCCc1ccncc1 (centres unmarked) [Compound 204]	Fmice: 10% (prelim rat done)					
CC(Cc1ccc(C(N)=O)cc1)NCCCc1ccc(F)cc1 (centres unmarked) [Compound 304]		41	5.57	1610		Ki (VMAT2; [9]): 31 nM
CC(Cc1ccc2[nH]cnc2c1)NCCCc1ccc(F)cc1 (centres unmarked) [Compound 303]		40	4.77	2900	22	
